Measured values from patent US11434222B2, “MAGL inhibitors” (H. LUNDBECK A/S, priority 2020, dated 2022).

Target: T1, MAGL (Homo sapiens, UniProt Q99685)
T1 construct: PC3 human cell membrane proteomes; endogenous in cells; host or cells: PC3 human cells (membrane proteome)
T1 sequence (Q99685 1-303): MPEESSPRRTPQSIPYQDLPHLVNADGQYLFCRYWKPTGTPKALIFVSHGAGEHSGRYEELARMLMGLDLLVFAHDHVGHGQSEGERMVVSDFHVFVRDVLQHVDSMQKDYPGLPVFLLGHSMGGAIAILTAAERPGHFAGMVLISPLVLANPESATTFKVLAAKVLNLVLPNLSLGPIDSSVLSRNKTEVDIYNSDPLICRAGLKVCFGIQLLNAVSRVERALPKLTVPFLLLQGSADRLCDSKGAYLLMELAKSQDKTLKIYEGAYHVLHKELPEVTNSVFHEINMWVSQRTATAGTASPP
Test: In vitro competitive activity-based protein profiling (PC3 human cell membrane proteomes)
Type: biochemical
Conditions: not given
Method: PC3 human cell membrane proteomes (50 µL, 2.0 mg/mL total protein concentration) were preincubated with varying concentrations of inhibitors at 37° C. After 30 min, the ABPP probe JW912-Bodipy (1.0 µL, 50 µM in DMSO) was added and the mixture was incubated for 30 min at room temperature. Reactions were quenched with SDS loading buffer (15 μL-4×) and run on SDS-PAGE. Following gel imaging, serine hydrolase activity was determined by measuring fluorescent intensity of gel bands corresponding to MAGL using ImageJ 1.43u software. Intensities were converted to percent enzyme activity by normalizing to DMSO controls. IC50 values were determined by fitting percent enzyme activities to a non-linear regression, 4-parameter, sigmoidal dose response function in Prism GraphPad.

MAGL % inh. 1 µM (human PC3) [%]	Compound
100	O=C(OC(C(F)(F)F)C(F)(F)F)N1CCC2(CC1)CC2C(=O)N1CCc2nc(C3CC3)ncc2C1 (single isomer, unassigned) [Example 64, 1,1,1,3,3,3-hexafluoropropan-2-yl (R or S)-1-(2-cyclopropyl-5,6,7,8-tetrahydropyrido[4,3-d]pyrimidine-6-carbonyl)-6-azaspiro[2.5]octane-6-carboxylate]
100	O=C(NC(=O)C1CC12CCN(C(=O)OC(C(F)(F)F)C(F)(F)F)CC2)c1ccccc1 (single isomer, unassigned) [Example 94, 1,1,1,3,3,3-hexafluoropropan-2-yl (R or S)-1-(benzoylcarbamoyl)-6-azaspiro[2.5]octane-6-carboxylate]
100	O=C(Nc1cnccn1)C1CC12CCN(C(=O)OC(C(F)(F)F)C(F)(F)F)CC2 (single isomer, unassigned) [Example 55, 1,1,1,3,3,3-hexafluoropropan-2-yl (R or S)-1-(pyrazin-2-ylcarbamoyl)-6-azaspiro[2.5]octane-6-carboxylate]
100	O=C(OC(C(F)(F)F)C(F)(F)F)N1CCC2(CC1)CC2C(=O)N1CCn2cc(C(F)(F)F)nc2C1 (single isomer, unassigned) [Example 52, 1,1,1,3,3,3-hexafluoropropan-2-yl (R or S)-1-(2-(trifluoromethyl)-5,6,7,8-tetrahydroimidazo[1,2-a]pyrazine-7-carbonyl)-6-azaspiro[2.5]octane-6-carboxylate]
75	Cc1ncccc1NC(=O)C1CC12CCN(C(=O)OC(C(F)(F)F)C(F)(F)F)CC2 (single isomer, unassigned) [Example 70, 1,1,1,3,3,3-hexafluoropropan-2-yl (R or S)-1-((2-methylpyridin-3-yl)carbamoyl)-6-azaspiro[2.5]octane-6-carboxylate]
100	CN(C(=O)C1CC12CCN(C(=O)OC(C(F)(F)F)C(F)(F)F)CC2)c1ccccn1 (single isomer, unassigned) [Example 46, 1,1,1,3,3,3-hexafluoropropan-2-yl (R or S)-1-(methyl(pyridin-2-yl)carbamoyl)-6-azaspiro[2.5]octane-6-carboxylate]
100	O=C(Nc1ccccn1)C1CC12CCN(C(=O)OC(C(F)(F)F)C(F)(F)F)CC2 (single isomer, unassigned) [Example 49, 1,1,1,3,3,3-hexafluoropropan-2-yl (R or S)-1-(pyridin-2-ylcarbamoyl)-6-azaspiro[2.5]octane-6-carboxylate]
100	O=C(Nc1cccc(C(F)(F)F)n1)C1CC12CCN(C(=O)OC(C(F)(F)F)C(F)(F)F)CC2 (single isomer, unassigned) [Example 73, 1,1,1,3,3,3-hexafluoropropan-2-yl (R or S)-1-((6-(trifluoromethyl)pyridin-2-yl)carbamoyl)-6-azaspiro[2.5]octane-6-carboxylate]
100	Cc1ncccc1NC(=O)C1CC12CCN(C(=O)OC(C(F)(F)F)C(F)(F)F)CC2 (single isomer, unassigned) [Example 69, 1,1,1,3,3,3-hexafluoropropan-2-yl (R or S)-1-((2-methylpyridin-3-yl)carbamoyl)-6-azaspiro[2.5]octane-6-carboxylate]
100	O=C(OC(C(F)(F)F)C(F)(F)F)N1CCC2(CC1)CC2C(=O)N1CCc2cnc(C(F)(F)F)nc2C1 (single isomer, unassigned) [Example 58, 1,1,1,3,3,3-hexafluoropropan-2-yl (R or S)-1-(2-(trifluoromethyl)-5,6,7,8-tetrahydropyrido[3,4-d]pyrimidine-7-carbonyl)-6-azaspiro[2.5]octane-6-carboxylate]
100	O=C(NCc1cccnc1)C1CC12CCN(C(=O)OC(C(F)(F)F)C(F)(F)F)CC2 (single isomer, unassigned) [Example 88, 1,1,1,3,3,3-hexafluoropropan-2-yl (R or S)-1-((pyridin-3-ylmethyl)carbamoyl)-6-azaspiro[2.5]octane-6-carboxylate]
100	O=C(Nc1cccnc1C(F)(F)F)C1CC12CCN(C(=O)OC(C(F)(F)F)C(F)(F)F)CC2 (single isomer, unassigned) [Example 85, 1,1,1,3,3,3-hexafluoropropan-2-yl (R or S)-1-((2-(trifluoromethyl)pyridin-3-yl)carbamoyl)-6-azaspiro[2.5]octane-6-carboxylate]

Compound	MAGL % inh. 1 µM (human PC3) [%]
O=C(Nc1cncc(Cl)c1)C1CC12CCN(C(=O)OC(C(F)(F)F)C(F)(F)F)CC2 (single isomer, unassigned) [Example 67, 1,1,1,3,3,3-hexafluoropropan-2-yl (R or S)-1-((5-chloropyridin-3-yl)carbamoyl)-6-azaspiro[2.5]octane-6-carboxylate]	100
O=C(Nc1cncnc1)C1CC12CCN(C(=O)OC(C(F)(F)F)C(F)(F)F)CC2 (single isomer, unassigned) [Example 97, 1,1,1,3,3,3-hexafluoropropan-2-yl (R or S)-1-(pyrimidin-5-ylcarbamoyl)-6-azaspiro[2.5]octane-6-carboxylate]	90
O=C(NC(=O)C1CC12CCN(C(=O)OC(C(F)(F)F)C(F)(F)F)CC2)C1CCCCC1 (single isomer, unassigned) [Example 91, 1,1,1,3,3,3-hexafluoropropan-2-yl (R or S)-1-((cyclohexanecarbonyl)carbamoyl)-6-azaspiro[2.5]octane-6-carboxylate]	100
Cc1ccc(NC(=O)C2CC23CCN(C(=O)OC(C(F)(F)F)C(F)(F)F)CC3)cn1 (single isomer, unassigned) [Example 82, 1,1,1,3,3,3-hexafluoropropan-2-yl (R or S)-1-((6-methylpyridin-3-yl)carbamoyl)-6-azaspiro[2.5]octane-6-carboxylate]	100
O=C(OC(C(F)(F)F)C(F)(F)F)N1CCC2(CC1)CC2C(=O)N1CCc2ncncc2C1 (single isomer, unassigned) [Example 61, 1,1,1,3,3,3-hexafluoropropan-2-yl (R or S)-1-(5,6,7,8-tetrahydropyrido[4,3-d]pyrimidine-6-carbonyl)-6-azaspiro[2.5]octane-6-carboxylate]	75
O=C(Nc1cnc(C(F)(F)F)nc1)C1CC12CCN(C(=O)OC(C(F)(F)F)C(F)(F)F)CC2 (single isomer, unassigned) [Example 100, 1,1,1,3,3,3-hexafluoropropan-2-yl (R or S)-1-((2-(trifluoromethyl)pyrimidin-5-yl)carbamoyl)-6-azaspiro[2.5]octane-6-carboxylate]	75
O=C(Nc1ccc(C(F)(F)F)nc1)C1CC12CCN(C(=O)OC(C(F)(F)F)C(F)(F)F)CC2 (single isomer, unassigned) [Example 79, 1,1,1,3,3,3-hexafluoropropan-2-yl (R or S)-1-((6-(trifluoromethyl)pyridin-3-yl)carbamoyl)-6-azaspiro[2.5]octane-6-carboxylate]	50

System: not listed separately
Test: Kinetic solubility in PBS
Type: physicochemical
Conditions: aqueous buffer, kinetic from dmso stock, PBS pH 2.0, RT, read-out: pH 2 Solubility (kinetic)
Method: The kinetic solubility of test articles was determined in PBS at pH 2.0 and pH 7.4 in duplicate. A stock solution of test compound in DMSO (10 mM) was incubated at RT for 2 hours with shaking at 1,100 RPM. The sample was then filtered using a vacuum manifold, diluted, and analyzed by LC-MS/MS. Chromatographic conditions: Phenomenex Synergi 4μ Hydro-PR 80A column (2.0×30 mm) coupled with pre-guard column; mobile phase=0.1% formic acid in acetonitrile and 0.1% formic acid in water; flowrate=0.65 mL/min; column temperature=40° C.; injection volume: 3 μL.
Mass conditions: Turbo spray ion source; ESI ionization model; MRM scan type; Collison gas=6 L/min; Curtain gas=30 L/min; Nebulize gas=50 L/min; Auxiliary gas=50 L/min; Temperature=500 degrees C.; Ion spray voltage=+5500 v (positive MRM).
The filtered solution was analyzed and quantified against a standard of known concentration in DMSO using UPLC coupled with mass spectral peak identification and quantitation. Solubility values of the test articles were calculated using Microsoft Excel as follows (DF is the dilution factor): […]

Compound	solubility kinetic at 2 h [µM]
O=C(NC(=O)C1CC12CCN(C(=O)OC(C(F)(F)F)C(F)(F)F)CC2)C1CCCCC1 (single isomer, unassigned) [Example 90, 1,1,1,3,3,3-hexafluoropropan-2-yl (R or S)-1-((cyclohexanecarbonyl)carbamoyl)-6-azaspiro[2.5]octane-6-carboxylate]	33

Same assay, conditions: aqueous buffer, kinetic from dmso stock, PBS pH 7.4, RT, read-out: pH 7.4 Solubility (kinetic)

Compound	solubility kinetic at 2 h [µM]
O=C(Nc1cncc(Cl)c1)C1CC12CCN(C(=O)OC(C(F)(F)F)C(F)(F)F)CC2 (single isomer, unassigned) [Example 66, 1,1,1,3,3,3-hexafluoropropan-2-yl (R or S)-1-((5-chloropyridin-3-yl)carbamoyl)-6-azaspiro[2.5]octane-6-carboxylate]	8.74
O=C(Nc1ccnc(C(F)(F)F)n1)[C@H]1CC12CCN(C(=O)OC(C(F)(F)F)C(F)(F)F)CC2 (single isomer, unassigned) [Example 17]	0.07
